Laboratory results published in ChEMBL document CHEMBL5244235, “Diarylpentanoids with antitumor activity: A critical review of structure-activity relationship studies” (Eur J Med Chem, 2020).
Blank lines part the entries; values can stand above or below the compound they belong to.

Tests used:
LS174T = test: Antiproliferative activity against human LS174T cells assessed as cell growth inhibition by MTT assay; format: functional, cell-based
[1] = Antiproliferative activity against human KATO III stomach cancer cell line assessed as cell growth inhibition by MTT assay; format: functional, cell-based
GCIY [2] = test: Antiproliferative activity against human GCIY cells assessed as cell growth inhibition by MTT assay; format: functional, cell-based
HeLa = test: Antiproliferative activity against human HeLa cells assessed as cell growth inhibition measured after 72 hrs by MTT assay; format: functional, cell-based; settings: Homo sapiens, HeLa, 72 h
HUVEC [3] = test: Anti-angiogenesis activity in HUVEC cells; format: functional, cell-based; settings: Homo sapiens
[4] = Antiproliferative activity against human H-111-TC cells assessed as cell growth inhibition by MTT assay; format: functional, cell-based
[5] = Antiproliferative activity against human SH-10-TC cells assessed as cell growth inhibition by MTT assay; format: functional, cell-based
Ca-Ski = test: Antiproliferative activity against human Ca-Ski cells assessed as cell growth inhibition measured after 72 hrs by MTT assay; format: functional, cell-based
NSCLC = test: Antiproliferative activity against human NSCLC cells assessed as cell growth inhibition measured after 72 hrs by neutral red assay; format: functional
[6] = system: Panel prostate (Carcinoma cell lines); test: Antiproliferative activity against human Panel prostate (Carcinoma cell lines) assessed as cell growth inhibition measured after 72 hrs by neutral red assay; format: functional
[7] = system: Panel melanoma (Carcinoma cell lines); test: Antiproliferative activity against human Panel melanoma (Carcinoma cell lines) assessed as cell growth inhibition measured after 72 hrs by neutral red assay; format: functional
RPMI-7951 [8] = test: Antiproliferative activity against human RPMI-7951 cells assessed as cell growth inhibition measured after 72 hrs by neutral red assay; format: functional
[9] = system: Panel ovarian (Carcinoma cell lines); test: Antiproliferative activity against human Panel ovarian (Carcinoma cell lines) assessed as cell growth inhibition measured after 72 hrs by neutral red assay; format: functional
[10] = system: Panel breast (Carcinoma cell lines); test: Antiproliferative activity against human Panel breast (Carcinoma cell lines) assessed as cell growth inhibition measured after 72 hrs by neutral red assay; format: functional
SVR = test: Anti-angiogenesis activity in mouse SVR cells assessed as cell growth inhibition; format: functional, cell-based
[11] = system: Panel renal (Carcinoma cell lines); test: Antiproliferative activity against human Panel renal (Carcinoma cell lines) assessed as cell growth inhibition measured after 72 hrs by neutral red assay; format: functional
[12] = system: Panel colon (Carcinoma cell lines); test: Antiproliferative activity against human Panel colon (Carcinoma cell lines) assessed as cell growth inhibition measured after 72 hrs by neutral red assay; format: functional
HUVEC [13] = test: Anti-angiogenesis activity in HUVEC cells assessed as cell growth inhibition; format: functional, cell-based; settings: Homo sapiens
[14] = system: Panel CNS (Carcinoma cell lines); test: Antiproliferative activity against human Panel CNS (Carcinoma cell lines) assessed as cell growth inhibition measured after 72 hrs by neutral red assay; format: functional
[15] = system: Panel leukemia (Carcinoma cell lines); test: Antiproliferative activity against human Panel leukemia (Carcinoma cell lines) assessed as cell growth inhibition measured after 72 hrs by neutral red assay; format: functional
MDA-MB-231 [16] = test: Antiproliferative activity against human MDA-MB-231 cells assessed as cell growth inhibition measured after 72 hrs by neutral red assay; format: functional
[17] = Anti-angiogenesis activity in […] MS-1 cells assessed as cell growth inhibition; format: functional, cell-based
[18] = Antiproliferative activity against human Panel NCI-58 (58 carcinoma cell lines) assessed as cell growth inhibition; format: functional
[19] = Cytotoxicity activity against mouse SVR cells assessed as cell growth inhibition at 6 ug/ml relative to control; format: toxicity, cell-based; settings: at 6 µg/mL
[20] = Cytotoxicity activity against mouse SVR cells assessed as cell growth inhibition at 3 ug/ml relative to control; format: toxicity, cell-based; settings: at 3 µg/mL
HCT-116 [21] = test: Antiproliferative activity against human HCT-116 cells assessed as cell viability measured after 24 hrs by XTT assay; format: functional, cell-based; settings: HCT-116, 24 h
HT-29 = test: Antiproliferative activity against human HT-29 cells assessed as cell viability measured after 24 hrs by XTT assay; format: functional, cell-based; settings: HT-29, 24 h
B16 [22] = test: Antiproliferative activity against mouse B16 cells assessed as cell growth inhibition; format: functional, cell-based
L1210 [23] = test: Antiproliferative activity against mouse L1210 cells assessed as inhibition of cell growth; format: functional, cell-based
U-937 = test: Antiproliferative activity against human U-937 cells assessed as cell viability by WST-1 assay; format: functional, cell-based
SAOS-2 = test: Antiproliferative activity against human SAOS-2 cells assessed as cell viability by WST-1 assay; format: functional, cell-based
HCT-116 [24] = test: Antiproliferative activity against human HCT-116 cells assessed as cell viability by WST-1 assay; format: functional, cell-based
Jurkat E6.1 = test: Antiproliferative activity against human Jurkat E6.1 cells assessed as cell viability by WST-1 assay; format: functional, cell-based
NCI-H460 [25] = test: Antiproliferative activity against human NCI-H460 cells assessed as cell growth inhibition measured after 48 hrs by MTT assay; format: functional, cell-based; settings: NCI-H460, 48 h
A549 [26] = test: Antiproliferative activity against human A549 cells assessed as cell growth inhibition measured after 48 hrs by MTT assay; format: functional, cell-based; settings: A549, 48 h
RPMI-7951 [27] = test: Growth inhibition of human RPMI-7951 cells measured after 72 hrs by microplate reader analysis; format: functional, cell-based; settings: RPMI-7951, time 72 hrs
MDA-MB-231 [28] = test: Growth inhibition of human MDA-MB-231 cells measured after 72 hrs by microplate reader analysis; format: functional
[29] = Cytotoxicity against mouse MS-1 cells assessed as cell growth inhibition by anti-angiogenisis screening assay; format: toxicity, cell-based
NCI-H460 [30] = test: Anticancer activity against human NCI-H460 cells assessed as cell growth inhibition; format: functional
[31] = Cytotoxicity against mouse SVR cells assessed as cell growth inhibition by anti-angiogenisis screening assay; format: toxicity, cell-based
A549 [32] = test: Anticancer activity against human A549 cells assessed as cell growth inhibition; format: functional
[33] = Cytotoxicity against HUVEC cells assessed as cell growth inhibition by anti-angiogenisis screening assay; format: toxicity, cell-based; settings: human
B16 [34] = test: Antiproliferative activity against mouse B16 cells assessed as cell growth inhibition measured after 72 hrs by MTT assay; format: functional, cell-based; settings: B16, 72 h
L1210 [35] = test: Antiproliferative activity against mouse L1210 cells assessed as cell growth inhibition measured after 72 hrs by MTT assay; format: functional, cell-based; settings: L1210, 72 h
A549 [36] = test: Antiproliferative activity against human A549 cells assessed as cell growth inhibition measured after 24 hrs by MTT assay; format: functional, cell-based; settings: A549, 24 h
NCI-H460 [37] = test: Antiproliferative activity against human NCI-H460 cells assessed as cell growth inhibition measured after 24 hrs by MTT assay; format: functional, cell-based; settings: NCI-H460, 24 h
A2780 = test: Antiproliferative activity against human A2780 cells assessed as cell viability at 10 uM measured after 24 hrs by MTT assay relative to control; format: functional; settings: read-out: Activity
[38] = Antiproliferative activity against human SH-10-TC cells assessed as cell growth inhibition measured after 72 hrs; format: functional, cell-based
A-431 = test: Antiproliferative activity against human A-431 cells assessed as cell growth inhibition measured after 72 hrs; format: functional, cell-based; settings: A-431, 72 h
PC-3 = test: Antiproliferative activity against human PC-3 cells assessed as cell growth inhibition measured after 72 hrs; format: functional, cell-based; settings: PC-3, 72 h
GCIY [39] = test: Antiproliferative activity against human GCIY cells assessed as cell growth inhibition measured after 72 hrs; format: functional, cell-based
[40] = Antiproliferative activity against human OVK18 cells assessed as cell growth inhibition measured after 72 hrs; format: functional, cell-based; settings: OVK18, 72 h
Huh-7 = test: Antiproliferative activity against human Huh-7 cells assessed as cell growth inhibition measured after 72 hrs; format: functional, cell-based; settings: Huh-7, 72 h
[41] = Antiproliferative activity against human PK-1 cells assessed as cell growth inhibition measured after 72 hrs; format: functional, cell-based; settings: PK-1, 72 h
8505C = test: Antiproliferative activity against human 8505C cells assessed as cell growth inhibition measured after 72 hrs; format: functional, cell-based
DLD-1 [42] = test: Antiproliferative activity against human DLD-1 cells assessed as cell growth inhibition measured after 96 hrs; format: functional, cell-based; settings: DLD-1, 96 h
HCT-116 [43] = test: Antiproliferative activity against human HCT-116 cells assessed as cell growth inhibition measured after 72 hrs; format: functional, cell-based; settings: HCT-116, 72 h
MCF7 = test: Antiproliferative activity against human MCF7 cells assessed as cell growth inhibition measured after 72 hrs; format: functional, cell-based; settings: MCF7, 72 h
DLD-1 [44] = test: Antiproliferative activity against human DLD-1 cells assessed as cell growth inhibition measured after 72 hrs; format: functional, cell-based; settings: DLD-1, 72 h
ACHN = test: Antiproliferative activity against human ACHN cells assessed as cell growth inhibition measured after 72 hrs; format: functional, cell-based
HuCCT-1 = test: Antiproliferative activity against human HuCCT-1 cells assessed as cell growth inhibition measured after 72 hrs; format: functional, cell-based; settings: HuCCT-1, 72 h
A549 [45] = test: Antiproliferative activity against human A549 cells assessed as cell growth inhibition measured after 72 hrs; format: functional, cell-based; settings: A549, 72 h
G-361 = test: Antiproliferative activity against human G-361 cells assessed as cell growth inhibition measured after 72 hrs; format: functional, cell-based; settings: G-361, 72 h

Compound: COc1cc(/C=C/C(=O)/C=C/c2ccc(O)c(OC)c2)ccc1O
IC50 (LS174T): 3700 nM
IC50 [1]: 5980 nM
IC50 (GCIY [2]): 7320 nM
EC50 (HeLa): 1030 nM
IC50 (HUVEC [3]): 400 nM
IC50 [4]: 3670 nM
IC50 [5]: 3280 nM
EC50 (Ca-Ski): 1030 nM

Compound: O=C1/C(=C/c2ccccc2O)CCC/C1=C\c1ccccc1O
GI50 (NSCLC): 1600 nM
GI50 [6]: 1600 nM
GI50 [7]: 1600 nM
GI50 (RPMI-7951 [8]): 1600 nM
GI50 [9]: 1600 nM
GI50 [10]: 1600 nM
GI50 (SVR): 2000 nM
GI50 [11]: 1600 nM
GI50 [12]: 1600 nM
GI50 (HUVEC [13]): 2000 nM
GI50 [14]: 1600 nM
GI50 [15]: 1600 nM
GI50 (MDA-MB-231 [16]): 1600 nM
GI50 [17]: 2000 nM

Compound: CCOc1cc(/C=C2\CN(C)C/C(=C\c3ccc(O)c(OCC)c3)C2=O)ccc1O
GI50 [18]: 1400 nM

Compound: O=C1/C(=C/c2ccccn2)CCC/C1=C\c1ccccn1
inhibition at 6 ug/ml [19]: 96%
inhibition at 3 ug/ml [20]: 90.1%

Compound: O=C1/C(=C/c2cccc(O)c2)CNC/C1=C\c1cccc(O)c1
IC50 (B16 [22]): 200 nM
IC50 (L1210 [23]): 300 nM

Compound: O=C1/C(=C/c2ccc(O)c(O)c2)COC/C1=C\c1ccc(O)c(O)c1
IC50 (U-937): 1450 nM
IC50 (SAOS-2): 1450 nM
IC50 (HCT-116 [24]): 1450 nM
IC50 (Jurkat E6.1): 1450 nM

Compound: CCN1C/C(=C\c2ccc(OC)c(OC)c2OC)C(=O)/C(=C/c2ccc(OC)c(OC)c2OC)C1
IC50 (A549 [36]): 5300 nM
IC50 (NCI-H460 [37]): 2300 nM

Compound: COc1cc(/C=C2\CNC/C(=C\c3cc(OC)cc(OC)c3OC)C2=O)c(OC)c(OC)c1
IC50 (B16 [22]): 200 nM
IC50 (L1210 [23]): 300 nM

Compound: CC1(C)C=C(CN2C/C(=C\c3ccc(F)cc3)C(=O)/C(=C/c3ccc(F)cc3)C2)C(C)(C)N1O
viability at 10 µM (A2780): 20%

Compound: O=C1/C(=C/c2ccc([N+](=O)[O-])cc2)CC(c2ccccc2)C/C1=C\c1ccc([N+](=O)[O-])cc1 (centres undefined)
IC50 (B16 [34]): 1600 nM
IC50 (L1210 [35]): 350 nM

Compound: COc1cc(/C=C/C(=O)CC(=O)/C=C/c2ccc(O)c(OC)c2)ccc1O [CURCUMIN]
IC50 (A549 [36]): 32500 nM
IC50 (NCI-H460 [37]): 5300 nM

Further lines, with some results ahead:

IC50 (HCT-116 [21]): 620 nM
IC50 (HT-29): 620 nM
Compound: CN1C/C(=C\c2ccccn2)C(=O)/C(=C/c2ccccn2)C1

IC50 (NCI-H460 [25]): 28700 nM
IC50 (A549 [26]): 30500 nM
Compound: O=C1/C(=C/c2ccccc2F)CCC/C1=C\c1ccccc1F

GI50 (MDA-MB-231 [28]): 1000 nM
GI50 (NCI-H460 [30]): 11300 nM
GI50 (A549 [32]): 17000 nM
Compound: O=C(/C=C/c1ccccc1F)/C=C/c1ccccc1F
GI50 (RPMI-7951 [27]): 2300 nM
GI50 [29]: 6100 nM
GI50 [31]: 6100 nM
GI50 [33]: 6100 nM

IC50 (B16 [34]): 510 nM
IC50 (L1210 [35]): 120 nM
Compound: COc1cc(/C=C2\CC(c3ccccc3)C/C(=C\c3cc(OC)c(OC)c(OC)c3)C2=O)cc(OC)c1OC (centres undefined)

IC50 (A-431): > 50000 nM
IC50 (PC-3): > 50000 nM
IC50 (Huh-7): > 50000 nM
IC50 (DLD-1 [42]): 3000 nM
IC50 (HCT-116 [43]): > 50000 nM
IC50 (MCF7): > 50000 nM
IC50 (DLD-1 [44]): > 50000 nM
IC50 (ACHN): > 50000 nM
IC50 (A549 [45]): > 50000 nM
Compound: O=C1/C(=C/c2ccccc2)CCC/C1=C\c1ccccc1 [2,6-DIBENZYLIDENECYCLOHEXANONE]
IC50 [38]: > 50000 nM
IC50 (GCIY [39]): > 50000 nM
IC50 [40]: > 50000 nM
IC50 [41]: > 50000 nM
IC50 (8505C): > 50000 nM
IC50 (HuCCT-1): > 50000 nM
IC50 (G-361): > 50000 nM
